Some results are limits rather than exact numbers.

The target in this experiment is Human CARM1 (PRMT4) (Homo sapiens (Human), UniProt Q86X55). Kind of experiment: CARM1 enzyme assay on peptide substrate (3H-SAM Flashplate). The settings on record: Biochemical potencies, classification codes; read-out: Biochem IC50.
Human CARM1 (PRMT4), sequence (Q86X55 other isoform, or with tags, fused parts or gaps isoform Q86X55-1): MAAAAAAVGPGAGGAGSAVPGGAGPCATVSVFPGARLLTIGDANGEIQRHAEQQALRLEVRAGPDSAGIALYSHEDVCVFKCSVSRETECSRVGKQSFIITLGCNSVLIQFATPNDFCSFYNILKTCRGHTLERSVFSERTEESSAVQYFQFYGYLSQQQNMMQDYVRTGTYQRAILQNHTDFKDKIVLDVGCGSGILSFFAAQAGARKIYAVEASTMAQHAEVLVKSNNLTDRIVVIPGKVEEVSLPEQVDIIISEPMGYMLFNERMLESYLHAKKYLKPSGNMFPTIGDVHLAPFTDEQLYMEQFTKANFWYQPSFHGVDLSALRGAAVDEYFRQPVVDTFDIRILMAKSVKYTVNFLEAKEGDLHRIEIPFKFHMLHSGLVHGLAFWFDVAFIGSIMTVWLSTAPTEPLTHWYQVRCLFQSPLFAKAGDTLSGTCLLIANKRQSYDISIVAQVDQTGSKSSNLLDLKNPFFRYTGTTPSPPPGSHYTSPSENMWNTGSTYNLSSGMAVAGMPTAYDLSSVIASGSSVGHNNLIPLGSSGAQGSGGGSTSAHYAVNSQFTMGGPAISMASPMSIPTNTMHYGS
For orientation: IC50 means the midpoint of a concentration-inhibition curve. Regarding `CNC[C@H](O)COc1ccc(Cl)c(-c2nc(-c3c(C)noc3C)c(C)c(N3CCN(C)C(C(F)F)C3)n2)c1` (stereo partly shown) [Example 74-3], the IC50 is < 100 nM.

For `CNCC(O)COc1cccc(-c2nc(-c3c(C)noc3C)c(F)c(N3CCN(C(=O)OC)CC3)n2)c1` (stereo not shown) [Example 97-1a], the IC50 was < 100 nM.

With `CNCC(O)COc1cccc(-c2nc(-c3ccncc3)cc(N(C)C3CCNCC3)n2)c1` (stereo not shown) [Example 669-1a], the IC50 is < 100 nM.

For `CNCC(O)COc1cccc(-c2nc(NC3CCNC[C@H]3F)c(C)c(-c3c(C)noc3C)n2)c1` (stereo partly shown) [Example 207-1a], the IC50 was < 100 nM.

As for `CNCC(O)COc1cccc(-c2nc(-c3c(C)noc3C)cc(N(C)CCC#N)n2)c1` (stereo not shown) [Example 5-1a], the IC50 is < 100 nM.

As for `CNCC(O)COc1cccc(-c2nc(-c3c(C)noc3C)c(C)c(N3CC(CO)(CNC(=O)N(C)C)C3)n2)c1` (stereo not shown) [Example 298-1a], the IC50 was < 100 nM.

In the case of `CNCC(O)COc1cccc(-c2nc(NCC3CCN(C4CC4)CC3)c(C)c(-c3c(C)noc3C)n2)c1` (stereo not shown) [Example 283-1a], the concentration for half-maximal inhibition (IC50) was < 100 nM.

Consider `CNCC(O)COc1cccc(-c2nc(N(C)c3cncnc3)cc(N(C)C3CCOCC3)n2)c1` (stereo not shown) [Example 487-1a], for which the IC50 is < 100 nM.

Consider `CNC[C@@H](O)COc1ccc(Cl)c(-c2nc(-c3c(C)noc3C)c(C)c(N3Cc4cnn(CC(F)(F)F)c4C3)n2)c1` [Example 265-3], for which the IC50 is < 100 nM.

Consider `CNCC(O)COc1cccc(-c2nc(-c3c(C)noc3C)cc(N3CCN(CC(F)(F)F)[C@@H](C)C3)n2)c1` (stereo partly shown) [Example 104-1a], for which the IC50 was < 100 nM.

`CNCC(O)COc1cccc(-c2nc(-c3c(C)noc3C)c(C)c(N3CCN(C(=O)C4CCOCC4)CC3)n2)c1` (stereo not shown) [Example 108-1a]: the IC50 is < 100 nM.

As to `CNCC(O)COc1cccc(-c2nc(NC3CCOC(C)(C)C3)c(C)c(-c3c(C)noc3C)n2)c1` (stereo not shown) [Example 290-1a], the IC50 was < 100 nM.

With `CNCC(O)COc1cccc(-c2nc(-c3c(C)noc3C)c(C)c(N(C)[C@H]3C[C@@](C)(OC)C3)n2)c1` (stereo partly shown) [Example 20-3], the half-inhibitory concentration (IC50) was < 100 nM.

On to `CNCC(O)COc1cccc(-c2nc(-c3cncnc3)cc(N(C)C3CCOCC3)n2)c1` (stereo not shown) [Example 525-1a], for which the IC50 is < 100 nM.

With `CNCC(O)COc1cc(N)cc(-c2nc(NC3CCOCC3)c(C)c(-c3c(C)noc3C)n2)c1` (stereo not shown) [Example 74-1a], the concentration for half-maximal inhibition (IC50) is < 100 nM.

As to `CNCC(O)COc1ccc(Cl)c(-c2nc(NC3CCN(C(=O)OC)CC3)c(Cl)c(-c3c(C)noc3C)n2)c1` (stereo not shown) [Example 187-1a], the IC50 is < 100 nM.

As for `CNC[C@@H](O)COc1ccc(Cl)c(-c2nc(N[C@@H]3CO[C@H](C)C3)c(C)c(-c3c(C)noc3C)n2)c1` [Example 179-3], the IC50 was < 100 nM.

Regarding `CNC[C@@H](O)COc1ccc(Cl)c(-c2nc(N[C@H]3CCO[C@H](C)C3)c(C)c(-c3c(C)noc3C)n2)c1` [Example 196-3], the IC50 was < 100 nM.

On to `CNC[C@@H](O)COc1cccc(-c2nc(NC3CCOCC3)cc(-c3c(C)noc3C)n2)c1` [Example 18-1a], for which the half-inhibitory concentration (IC50) was < 100 nM.

Regarding `CNC[C@@H](O)COc1ccc(F)c(-c2nc(-c3c(C)noc3C)cc(N3CC4(CCOCC4)C3)n2)c1` [Example 277-3], the IC50 is < 100 nM.

For `CNCC(O)COc1cccc(-c2nc(NC3CCOC3)c(C)c(N3CCN[C@@H](C)C3)n2)c1` (stereo partly shown) [Example 351-1a], the IC50 is < 100 nM.

Turning to `CNCC(O)COc1cccc(-c2nc(-c3c(C)noc3C)cc(N(C)CC3CCOCC3)n2)c1` (stereo not shown) [Example 87-1a], the concentration for half-maximal inhibition (IC50) was < 100 nM.

As to `CNCC(O)COc1cccc(-c2nc(-c3cccc(C#N)c3)cc(N(C)CCC#N)n2)c1` (stereo not shown) [Example 24-1], the IC50 is < 100 nM.

On to `CNCC(O)COc1ccc(Cl)c(-c2nc(NCC3CCOC3)c(C)c(-c3c(C)noc3C)n2)c1` (stereo not shown) [Example 30-3], for which the half-maximal inhibitory concentration (IC50) is < 100 nM.

Turning to `CCOC(=O)N1CCC[C@@H]1CCNc1nc(-c2cc(OC[C@H](O)CNC)ccc2Cl)nc(-c2c(C)noc2C)c1C` [Example 136-3], the IC50 is < 100 nM.

Values taken from US20230279020A9, “CARM1 INHIBITORS AND USES THEREOF” (Epizyme, Inc., priority 2013, published 2023).
